These compounds were tested against recombinant DYRK1A kinase (Homo sapiens (Human), UniProt Q13627) (assay: DYRK1A kinase assay (Ser/Thr 18 peptide Z-lyte FRET assay)). Details: DYRK1A kinase activity; 15 μM ATP, 1 h room temperature; method text calls the value IC50.
Format: biochemical
Procedure: Representative compounds were screened using the assay procedure for DYRK1A kinase activity as described below.
Each compound was dissolved in DMSO as a 10 mM stock and used to prepare compound source plates. Serial dilution (1:3, 11-point dose-response curves from 10 μM to 0.00016 μM) and compound transfer was performed using the ECHO 550 (Labcyte, Sunnyvale, CA) into 1536-well black-walled round bottom plates (Corning).
The DYRK1A kinase assay was run using the Ser/Thr 18 peptide Z-lyte assay kit according to manufacturer's instructions (Life Technologies—a Division of Thermo-Fisher). This is a non-radioactive assay using fluorescence resonance energy transfer (FRET) between coumarin and fluorescein to detect kinase activity which is represented as a ratio of coumarin emission/fluorescein emission.
Briefly, recombinant DYRK1A kinase, ATP and Ser/Thr peptide 18 were prepared in 1× Kinase buffer to final concentrations of 0.25 μg/mL, 15 μM, and 4 μM respectively. The mixture was allowed to incubate with the representative compounds for one hour at room temperature. All reactions were performed in duplicate. Unphosphorylated (“0% Control”) and phosphorylated (“100% control”) forms of Ser/Thr 18 served as control reactions. Additionally, an 11-point dose-response curve of Staurosporine (1 uM top) was run to serve as a positive compound control.
After incubation, Development Reagent A was diluted in Development Buffer then added to the reaction and allowed to further incubate for one hour at room temperature. The plate was read at Ex 400 Em […] to detect the coumarin signal and Ex 400 Em 520 to measure the signal (EnVision Multilabel Plate Reader, PerkinElmer).
The Emission ratio (Em) was calculated as a ratio of the coumarin (C) emission signal (at 445 nm)/Fluorescein (F) emission signal (at 520 nm). The percent phosphorylation was then calculated using the following formula: [1−((Em ratio×F100%)−C100%)/((C0%−C100%)+(Em ratio×(F100%−F0%)))]. Dose-response curves were generated, and inhibitory concentration (IC50) values were calculated using non-linear regression curve fit in the Dotmatics' Studies Software (Bishops Stortford, UK).

Row | Structure (SMILES) | EC50
1 | CC(C)(F)CNc1ncc2c(-c3cc(F)c4ncnn4c3)c[nH]c2n1 [Compound 774, N-(2-Fluoro-2-methylpropyl)-5-(8-fluoro-[1,2,4]triazolo[1,5-a]pyridin-6-yl)-7H-pyrrolo[2,3-d]pyrimidin-2-amine] | 76.3 nM
2 | CC(C)Nc1ncc2c(-c3ccn4ncnc4c3)c[nH]c2n1 [Compound 804, 5-([1,2,4]Triazolo[1,5-a]pyridin-7-yl)-N-isopropyl-7H-pyrrolo[2,3-d]pyrimidin-2-amine] | 72.1 nM
3 | C[C@@H](Nc1ncc2c(-c3ccn4ncnc4c3)c[nH]c2n1)C(F)(F)F [Compound 806, (R)-5-([1,2,4]Triazolo[1,5-a]pyridin-7-yl)-N-(1,1,1-trifluoropropan-2-yl)-7H-pyrrolo[2,3-d]pyrimidin-2-amine] | 18.8 nM
4 | C[C@H](Nc1ncc2c(-c3ccn4ncnc4c3)c[nH]c2n1)C(F)(F)F [Compound 807, (S)-5-([1,2,4]Triazolo[1,5-a]pyridin-7-yl)-N-(1,1,1-trifluoropropan-2-yl)-7H-pyrrolo[2,3-d]pyrimidin-2-amine] | 165 nM
5 | CN1CCN(c2ccc(CNc3ncc4c(-c5ccn6ncnc6c5)c[nH]c4n3)cn2)CC1 [Compound 808, 5-([1,2,4]Triazolo[1,5-a]pyridin-7-yl)-N-((6-(4-methylpiperazin-1-yl)pyridin-3-yl)methyl)-7H-pyrrolo[2,3-d]pyrimidin-2-amine] | 52.3 nM
6 | CC(C)Cc1ncc2c(-c3ccc4nnn(C)c4c3)c[nH]c2n1 [Compound 810, 6-(2-Isobutyl-7H-pyrrolo[2,3-d]pyrimidin-5-yl)-1-methyl-1H-benzo[d][1,2,3]triazole] | 66 nM
7 | Cn1nnc2ccc(-c3c[nH]c4nc(CCC(F)(F)F)ncc34)cc21 [Compound 811, 1-Methyl-6-(2-(3,3,3-trifluoropropyl)-7H-pyrrolo[2,3-d]pyrimidin-5-yl)-1H-benzo[d][1,2,3]triazole] | 33.3 nM
8 | Cn1nnc2ccc(-c3c[nH]c4nc(NCC(C)(C)F)ncc34)cc21 [Compound 822, N-(2-Fluoro-2-methylpropyl)-5-(1-methyl-1H-benzo[d][1,2,3]triazol-6-yl)-7H-pyrrolo[2,3-d]pyrimidin-2-amine] | 2.9 nM
9 | Cn1nnc2ccc(-c3c[nH]c4nc(NCC(C)(F)F)ncc34)cc21 [Compound 823, N-(2,2-Difluoropropyl)-5-(1-methyl-1H-benzo[d][1,2,3]triazol-6-yl)-7H-pyrrolo[2,3-d]pyrimidin-2-amine] | 6 nM
10 | Cn1nnc2ccc(-c3c[nH]c4nc(NCC(F)(F)F)ncc34)cc21 [Compound 824, 5-(1-Methyl-1H-benzo[d][1,2,3]triazol-6-yl)-N-(2,2,2-trifluoroethyl)-7H-pyrrolo[2,3-d]pyrimidin-2-amine] | 3.4 nM
11 | C[C@@H](Nc1ncc2c(-c3ccc4nnn(C)c4c3)c[nH]c2n1)C(F)(F)F [Compound 825, (R)-5-(1-Methyl-1H-benzo[d][1,2,3]triazol-6-yl)-N-(1,1,1-trifluoropropan-2-yl)-7H-pyrrolo[2,3-d]pyrimidin-2-amine] | 4.8 nM
12 | C[C@H](Nc1ncc2c(-c3ccc4nnn(C)c4c3)c[nH]c2n1)C(F)(F)F [Compound 826, (S)-5-(1-Methyl-1H-benzo[d][1,2,3]triazol-6-yl)-N-(1,1,1-trifluoropropan-2-yl)-7H-pyrrolo[2,3-d]pyrimidin-2-amine] | 43 nM
13 | CN1CCC(Nc2ncc3c(-c4ccc5nnn(C)c5c4)c[nH]c3n2)CC1 [Compound 841, 5-(1-Methyl-1H-benzo[d][1,2,3]triazol-6-yl)-N-(1-methylpiperidin-4-yl)-7H-pyrrolo[2,3-d]pyrimidin-2-amine] | 13.6 nM
14 | Cn1nnc2ccc(-c3c[nH]c4nc(NC5CCOCC5)ncc34)cc21 [Compound 843, 5-(1-Methyl-1H-benzo[d][1,2,3]triazol-6-yl)-N-(tetrahydro-2H-pyran-4-yl)-7H-pyrrolo[2,3-d]pyrimidin-2-amine] | 23.2 nM
15 | CCn1nnc2ccc(-c3c[nH]c4nc(NCC(C)(C)F)ncc34)cc21 [Compound 865, 5-(1-Ethyl-1H-benzo[d][1,2,3]triazol-6-yl)-N-(2-fluoro-2-methylpropyl)-7H-pyrrolo[2,3-d]pyrimidin-2-amine] | 7.3 nM
16 | Cc1nnc2ccc(-c3c[nH]c4nc(NCC(C)(C)F)ncc34)cn12 [Compound 895, N-(2-Fluoro-2-methylpropyl)-5-(3-methyl-[1,2,4]triazolo[4,3-a]pyridin-6-yl)-7H-pyrrolo[2,3-d]pyrimidin-2-amine] | 83.2 nM

Row | Structure (SMILES) | EC50
17 | CC(C)Cc1ncc2c(-c3ccc4nccn4n3)c[nH]c2n1 [Compound 897, 5-(Imidazo[1,2-b]pyridazin-6-yl)-2-isobutyl-7H-pyrrolo[2,3-d]pyrimidine] | 66.8 nM
18 | CC(C)(C)CNc1ncc2c(-c3ccc4nccn4n3)c[nH]c2n1 [Compound 907, 5-(Imidazo[1,2-b]pyridazin-6-yl)-N-neopentyl-7H-pyrrolo[2,3-d]pyrimidin-2-amine] | 8.8 nM
19 | FC(F)(F)CNc1ncc2c(-c3ccc4nccn4n3)c[nH]c2n1 [Compound 911, 5-(Imidazo[1,2-b]pyridazin-6-yl)-N-(2,2,2-trifluoroethyl)-7H-pyrrolo[2,3-d]pyrimidin-2-amine] | 9.6 nM
20 | C[C@@H](Nc1ncc2c(-c3ccc4nccn4n3)c[nH]c2n1)C1CC1 [Compound 918, (R)—N-(1-Cyclopropylethyl)-5-(imidazo[1,2-b]pyridazin-6-yl)-7H-pyrrolo [2,3-d]pyrimidin-2-amine] | 3.4 nM
21 | c1cn2nc(-c3c[nH]c4nc(NC5CCOCC5)ncc34)ccc2n1 [Compound 930, 5-(Imidazo[1,2-b]pyridazin-6-yl)-N-(tetrahydro-2H-pyran-4-yl)-7H-pyrrolo[2,3-d]pyrimidin-2-amine] | 4 nM
22 | CC(C)(F)CNc1ncc2c(-c3ccc4ncc(Cl)n4n3)c[nH]c2n1 [Compound 952, 5-(3-chloroimidazo[1,2-b]pyridazin-6-yl)-N-(2-fluoro-2-methylpropyl)-7H-pyrrolo[2,3-d]pyrimidin-2-amine] | 2.7 nM
23 | Cc1cn2nc(-c3c[nH]c4nc(NC(C)C)ncc34)ccc2n1 [Compound 991, N-Isopropyl-5-(2-methylimidazo[1,2-b]pyridazin-6-yl)-7H-pyrrolo[2,3-d]pyrimidin-2-amine] | 25.7 nM
24 | Cc1cn2nc(-c3c[nH]c4nc(NCC(C)(C)F)ncc34)ccc2n1 [Compound 995, N-(2-Fluoro-2-methylpropyl)-5-(2-methylimidazo[1,2-b]pyridazin-6-yl)-7H-pyrrolo[2,3-d]pyrimidin-2-amine] | 9.3 nM
25 | Cc1cnc2ccc(-c3c[nH]c4nc(NC5CCN(C)CC5)ncc34)nn12 [Compound 1057, 5-(3-Methylimidazo[1,2-b]pyridazin-6-yl)-N-(1-methylpiperidin-4-yl)-7H-pyrrolo[2,3-d]pyrimidin-2-amine] | 9.8 nM
26 | CC(C)(F)CNc1ncc2c(-c3ccc4ncc(C(F)F)n4n3)c[nH]c2n1 [Compound 1081, 5-(3-(Difluoromethyl)imidazo[1,2-b]pyridazin-6-yl)-N-(2-fluoro-2-methylpropyl)-7H-pyrrolo[2,3-d]pyrimidin-2-amine] | 2.6 nM
27 | CC(C)(F)CNc1ncc2c(-c3ccn4nccc4c3)c[nH]c2n1 [Compound 1125, N-(2-Fluoro-2-methylpropyl)-5-(pyrazolo[1,5-a]pyridin-5-yl)-7H-pyrrolo [2,3-d]pyrimidin-2-amine] | 4.6 nM
28 | C[C@@H](Nc1ncc2c(-c3ccn4nccc4c3)c[nH]c2n1)C(F)(F)F [Compound 1128, (R)-5-(Pyrazolo[1,5-a]pyridin-5-yl)-N-(1,1,1-trifluoropropan-2-yl)-7H-pyrrolo[2,3-d]pyrimidin-2-amine] | 2.4 nM
29 | CN1CCC(Nc2ncc3c(-c4ccn5nccc5c4)c[nH]c3n2)CC1 [Compound 1146, N-(1-Methylpiperidin-4-yl)-5-(pyrazolo[1,5-a]pyridin-5-yl)-7H-pyrrolo[2,3-d]pyrimidin-2-amine] | 28.5 nM
30 | CC(C)(F)CNc1ncc2c(-c3ccn4ncc(F)c4c3)c[nH]c2n1 [Compound 1157, N-(2-Fluoro-2-methylpropyl)-5-(3-fluoropyrazolo[1,5-a]pyridin-5-yl)-7H-pyrrolo[2,3-d]pyrimidin-2-amine] | 68.9 nM
31 | CN1CCC(Nc2ncc3c(-c4ccn5ncc(-c6cnn(C)c6)c5c4)c[nH]c3n2)CC1 [Compound 1190, 5-(3-(1-Methyl-1H-pyrazol-4-yl)pyrazolo[1,5-a]pyridin-5-yl)-N-(1-methylpiperidin-4-yl)-7H-pyrrolo[2,3-d]pyrimidin-2-amine] | 3 nM
32 | O=C(c1cnn2ccc(-c3c[nH]c4nc(C5CCC5)ncc34)cc12)N1CCCCC1 [Compound 1205, (5-(2-Cyclobutyl-7H-pyrrolo[2,3-d]pyrimidin-5-yl)pyrazolo[1,5-a]pyridin-3-yl)(piperidin-1-yl)methanone] | 259 nM
